Experiments:
[1] = target: Lp(a) assembly in HepG2 cells overexpressing ApoA protein (Homo sapiens (Human), UniProt P08519); assay: ELISA assay on screening Lp(a) assembly inhibition; format: cell-based; settings: HepG2 cells overexpressing ApoA protein, 24 h, ELISA of supernatant
Procedure, shortened: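 HepG2 cells overexpressing ApoA treated with diluted compounds for 24 h at 37 °C, 5% CO2; EACA (10 μL of 1.5 M) added before harvesting supernatant. Secreted Lp(a) quantified by sandwich ELISA; IC50 from four-parameter Hill fit of % inhibition versus concentration.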

[2] = tested on: serum Lp(a); assay: Humanized mouse Lp(a) inhibition test; format: in vivo, humanized Lp(a) transgenic mouse; settings: blood 8 h after last dose, humanized Lp(a) mice
Protocol: The in vivo pharmacodynamics of the compounds in reducing Lp(a) was evaluated in a humanized Lp(a) transgenic mouse model. Lp(a) mice were obtained by crossing mice expressing humanized apoB-100 with mice expressing humanized apo(a) containing 16 Kringle repeats. Female mice aged 8-9 weeks were selected for the test. Housing conditions: standard light cycle (12 h light/12 h dark), temperature 20-25° C., humidity 40-70%, free access to water and normal diet. is One day before the test, mice were divided into vehicle control group and test article group (n=5/group) according to body weight and baseline plasma Lp(a) concentration. Mice were orally administered with vehicle (normal saline, 10 mL/kg) or test compound (prepared with normal saline to 3 or 0.5 mg/mL, each mouse received 10 mL/kg), once daily (9:00 am) for 3 consecutive days, and blood was collected to determine the change of serum Lp(a). Eight hours after the last dose, 10 μL of blood was collected from the tail vein and transferred to a 1.5 mL centrifuge tube containing 90 μL of normal saline, mixed well, and left to stand on ice for 30 min. The above samples were centrifuged at 4° C., 3000 rpm for 10 min, and the supernatant was collected and placed on ice. The Lp(a) concentration in the supernatant was measured by double-antibody sandwich ELISA using an anti-apo(a) capture antibody and an HRP-conjugated anti-ApoB detection antibody, with TMB for color development. The reaction was stopped with 1 N sulfuric acid, and the OD value was read at 450 nm on a Tecan microplate reader. Inhibition rate was calculated for each dosing group. Inhibition rate (%)=(vehicle control group Lp(a) concentration or self pre-dose Lp(a) concentration post-dose Lp(a) concentration)/vehicle control group Lp(a) concentration or self pre-dose Lp(a) concentration*100.

[3] = Pharmacokinetic test in C57BL/6J female mice; format: in vivo; settings: mouse, plasma; for bioavailability: gavage 10 mg/kg vs intravenous 2 mg/kg
Protocol: C57BL/6J female mice were used as test animals, and the drug concentration in plasma of C57BL/6J female mice at different time points after intravenous and gavage administration was determined to study the pharmacokinetic characteristics of the compound in C57BL/6J female mice.
Drug formulation: a certain amount of compound was weighed and normal saline was added to prepare clear, colorless solutions of 0.4 mg/mL (IV) and 1 mg/mL (PO).
Test procedure: C57BL/6J female mice were fasted overnight before gavage administration, followed by non-fasted intravenous administration. The intravenous dose was 2 mg/kg, and the gavage dose was 10 mg/kg. Approximately 0.03 mL of blood was collected from the orbital venous plexus at 0.083 (IV), 0.25, 0.5, 1, 2, 4, 8 and 24 h after administration, respectively, placed in a centrifuge tube containing EDTA-K2, centrifuged at 3000 rpm/min at 2-8° C. for 10 min to obtain plasma, and stored at −80° C.
Determination of the content of the compound to be tested in plasma of C57BL/6J female mice at different blood collection time points: 10 μL of plasma of C57BL/6J female mice collected at each time point after administration of LY3473329 and the compound of this application was added with 200 μL of 500 mM trichloroacetic acid aqueous solution to precipitate protein, which contained 100 ng/mL internal standard, vortexed for 1 min, centrifuged at 14000 rpm for 7 min for samples treated with test tubes, and centrifuged at 4000 rpm for 10 min for samples treated with 96-well plates, and 190 μL of the supernatant was transferred to a 96-well plate, and 8 μL of the supernatant was injected for LC-MS/MS analysis. WO2023078333A1 Example 6:12 μL of plasma of C57BL/6J female mice collected at each time point after administration was added with 240 μL of methanol to precipitate protein, which contained 10 ng/mL internal standard, vortexed for 1 min, centrifuged at 14000 rpm for 7 min for samples treated with test tubes, and centrifuged at 4000 rpm for 10 min for samples treated with 96-well plates. 220 μL of the supernatant was transferred to a 96-well plate, and 10 μL of the supernatant was taken for LC-MS/MS analysis.
After plasma concentrations were determined by LC/MS/MS analysis method, pharmacokinetic parameters (e.g. Cmax, AUC, T1/2, etc.) were calculated using WinNonlin software and noncompartmental analysis.

[4] = Safety assessment test in rats (14-day oral gavage); format: in vivo; settings: SD rats, 300 and 1000 mg/kg oral once daily for 14 days
Protocol: The safety of the compounds of the present invention was evaluated by oral gavage administration to SD rats as the test animals.
Test method: 50 SD rats (half males and half females) were randomly divided into vehicle control group and test article group according to their body weight. The vehicle saline or the compound of the present invention or LY3473329 (300 mg/kg, 1000 mg/kg) was administered orally once daily for 14 consecutive days.

[5] = 5 mg/kg oral once daily for 3 days
[6] = intravenous administration, 2 mg/kg
[7] = po, gavage administration, 10 mg/kg

Lp(a) assembly in HepG2 cells overexpressing ApoA protein, sequence (P08519 20-2040): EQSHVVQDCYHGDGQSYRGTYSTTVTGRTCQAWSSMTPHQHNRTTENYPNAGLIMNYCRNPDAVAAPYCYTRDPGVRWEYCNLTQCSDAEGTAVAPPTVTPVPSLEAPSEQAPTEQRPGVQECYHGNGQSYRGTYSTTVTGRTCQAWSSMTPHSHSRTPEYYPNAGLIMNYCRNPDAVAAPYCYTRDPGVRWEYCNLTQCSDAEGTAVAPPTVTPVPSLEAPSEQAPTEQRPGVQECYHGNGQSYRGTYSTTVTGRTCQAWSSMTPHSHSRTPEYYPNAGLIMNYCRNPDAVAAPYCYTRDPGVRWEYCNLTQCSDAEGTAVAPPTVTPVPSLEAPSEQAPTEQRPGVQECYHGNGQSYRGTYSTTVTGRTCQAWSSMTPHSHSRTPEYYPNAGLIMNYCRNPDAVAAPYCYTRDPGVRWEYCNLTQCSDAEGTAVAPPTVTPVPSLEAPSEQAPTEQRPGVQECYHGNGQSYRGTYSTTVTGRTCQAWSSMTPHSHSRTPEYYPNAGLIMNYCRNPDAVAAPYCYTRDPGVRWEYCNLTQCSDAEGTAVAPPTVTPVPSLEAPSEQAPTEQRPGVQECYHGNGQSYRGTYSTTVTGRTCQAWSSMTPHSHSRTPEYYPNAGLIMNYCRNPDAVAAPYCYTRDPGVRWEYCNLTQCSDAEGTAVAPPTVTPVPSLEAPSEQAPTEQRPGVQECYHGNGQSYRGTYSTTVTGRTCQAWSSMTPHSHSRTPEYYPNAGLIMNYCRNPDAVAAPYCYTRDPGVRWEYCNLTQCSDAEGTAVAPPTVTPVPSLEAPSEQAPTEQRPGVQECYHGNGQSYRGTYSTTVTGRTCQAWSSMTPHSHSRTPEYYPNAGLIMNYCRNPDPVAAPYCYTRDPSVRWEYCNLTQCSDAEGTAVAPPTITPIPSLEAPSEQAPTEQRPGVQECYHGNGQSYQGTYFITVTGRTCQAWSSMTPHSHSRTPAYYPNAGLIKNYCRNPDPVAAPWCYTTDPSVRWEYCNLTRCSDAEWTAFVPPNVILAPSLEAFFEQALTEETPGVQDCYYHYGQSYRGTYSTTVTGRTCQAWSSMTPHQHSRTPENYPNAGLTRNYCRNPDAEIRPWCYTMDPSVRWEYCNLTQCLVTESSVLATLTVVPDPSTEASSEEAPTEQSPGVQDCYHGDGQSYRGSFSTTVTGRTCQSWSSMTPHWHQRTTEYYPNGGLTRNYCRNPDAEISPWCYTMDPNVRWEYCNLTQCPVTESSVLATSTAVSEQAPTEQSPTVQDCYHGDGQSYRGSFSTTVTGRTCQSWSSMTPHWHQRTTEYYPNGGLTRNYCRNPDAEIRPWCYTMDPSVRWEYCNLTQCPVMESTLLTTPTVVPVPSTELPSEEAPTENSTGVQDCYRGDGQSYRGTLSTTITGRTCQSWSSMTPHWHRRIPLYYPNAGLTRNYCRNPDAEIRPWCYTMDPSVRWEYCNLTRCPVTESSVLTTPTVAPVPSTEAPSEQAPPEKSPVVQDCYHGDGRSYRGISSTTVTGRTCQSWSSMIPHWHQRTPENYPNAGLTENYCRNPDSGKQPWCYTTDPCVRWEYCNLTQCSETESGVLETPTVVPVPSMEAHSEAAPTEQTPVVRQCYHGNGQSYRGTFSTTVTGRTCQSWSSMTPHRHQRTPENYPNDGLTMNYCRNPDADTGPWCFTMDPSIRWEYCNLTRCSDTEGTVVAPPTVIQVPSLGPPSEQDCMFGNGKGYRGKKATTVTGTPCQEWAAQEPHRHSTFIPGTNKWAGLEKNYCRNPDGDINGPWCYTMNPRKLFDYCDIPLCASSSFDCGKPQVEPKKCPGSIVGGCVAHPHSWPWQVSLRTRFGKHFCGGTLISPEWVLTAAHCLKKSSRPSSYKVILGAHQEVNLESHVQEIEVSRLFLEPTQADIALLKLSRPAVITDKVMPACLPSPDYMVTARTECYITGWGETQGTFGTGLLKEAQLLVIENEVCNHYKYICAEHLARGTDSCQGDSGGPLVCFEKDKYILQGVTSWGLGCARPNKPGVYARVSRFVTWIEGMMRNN

SMILES | IC50 [1] [nM] | Lp(a) Inhibition Rate [2, 5] [%] | AUC [3, 6] [ng·h/mL] | half-life [3, 6] [h] | bioavailability ([3]; po) [%] | AUC [3, 7] [ng·h/mL] | Cmax [3, 7] [ng/mL] | half-life [3, 7] [h] | Lp(a) Inhibition Rate ([2]; 30 mg/kg oral once daily for 3 days) [%] | compound-related changes in clinical observation, body weight, food consumption, hematology, blood biochemistry, urine, organ weight, histopathology [4]
O=C(O)[C@@H](Cc1cccc(CC(=O)N(CCCOc2cccc(C[C@H](C(=O)O)[C@H]3CCNC3)c2)Cc2cccc(C[C@H](C(=O)O)[C@H]3CCNC3)c2)c1)[C@H]1CCNC1 [Compound 159, (S)-3-(3-(2-((3-((S)-2-carboxy-2-((R)-pyrrolidin-3-yl)ethyl)benzyl)(3-(3-((S)-2-carboxy-2-((R)-pyrrolidin-3-yl)ethyl)phenoxy)propyl)amino)-2-oxoethyl)phenyl)-2-((R)-pyrrolidin-3-yl)propanoic acid] | 1.68 | 84 | 33400 | 35.5 | 13.5 | 21000 | 874 | 28.9 |  | 
O=C(O)[C@@H](Cc1cccc(CC(=O)N(CCOc2cccc(C[C@H](C(=O)O)[C@H]3CCNC3)c2)Cc2cccc(C[C@H](C(=O)O)[C@H]3CCNC3)c2)c1)[C@H]1CCNC1 [Compound 96, (S)-3-(3-(2-((3-((S)-2-carboxy-2-((R)-pyrrolidin-3-yl)ethyl)benzyl)(2-(3-((S)-2-carboxy-2-((R)-pyrrolidin-3-yl)ethyl)phenoxy)ethyl)amino)-2-oxoethyl)phenyl)-2-((R)-pyrrolidin-3-yl)propanoic acid] | 0.58 | 91 | 22900 | 23.3 | 13.9 | 12400 | 919 | 11.4 | 96 | 
O=C(O)[C@@H](Cc1cccc(COCCN(Cc2cccc(C[C@H](C(=O)O)[C@H]3CCNC3)c2)C(=O)Cc2cccc(C[C@H](C(=O)O)[C@H]3CCNC3)c2)c1)[C@H]1CCNC1 [Compound 160, (S)-3-(3-(2-((3-((S)-2-carboxy-2-((R)-pyrrolidin-3-yl)ethyl)benzyl)(2-((3-((S)-2-carboxy-2-((R)-pyrrolidin-3-yl)ethyl)benzyl)oxy)ethyl)amino)-2-oxoethyl)phenyl)-2-((R)-pyrrolidin-3-yl)propanoic acid] | 1.37 | 83 | 19200 | 12.1 | 15.9 | 23500 | 816 | 28.8 |  | 
O=C(O)[C@@H](Cc1cccc(CN(CCOc2cccc(C[C@H](C(=O)O)[C@H]3CCNC3)c2)C(=O)Nc2cccc(C[C@H](C(=O)O)[C@H]3CCNC3)c2)c1)[C@H]1CCNC1 [Compound 131, (S)-3-(3-(3-(3-((S)-2-carboxy-2-((R)-pyrrolidin-3-yl)ethyl)benzyl)-3-(2-(3-((S)-2-carboxy-2-((R)-pyrrolidin-3-yl)ethyl)phenoxy)ethyl)ureido)phenyl)-2-((R)-pyrrolidin-3-yl)propanoic acid] | 1.19 | 81 | 31300 | 33.7 | 13.2 | 14300 | 893 | 16 |  | 
O=C(O)[C@@H](Cc1cccc(CN(Cc2cccc(C[C@H](C(=O)O)[C@H]3CCNC3)c2)Cc2cccc(C[C@H](C(=O)O)[C@H]3CCNC3)c2)c1)[C@H]1CCNC1 [LY3473329, reference compound] |  |  | 8820 | 9.8 | 10.1 | 4460 | 629 | 7.4 |  | no changes

Source: patent US20250179055A1, “Substituted 2-(pyrrolidine-3-yl)acetic acid derivative, preparation method and use thereof” (INNOVSTONE THERAPEUTICS LIMITED, priority 2023, published 2025)
